Data reported in patent US12264173B2 (GILEAD SCIENCES, INC., priority 2020, dated 2025).

Assays:
Type in all cases: cell-based
DENV2 replicon = assay: DENV-2 Huh-7 Rep EC50 (replicon luminescence); settings: Dengue virus, DENV2, Huh-7, 48 h, read-out: DENV-2 REP Huh7 EC50
Summary of the method: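 EC50 derived from luminescence dose-response, normalised to DMSO-only 0% inhibition wells, after 1.5 h with EnduRen substrate. Compounds were first exposed for 48 h at 37° C to DENV2 replicon Huh-7 cells (5,000/well).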

RSV strain A2 = assay: microbe, parasite or virus in culture; settings: human respiratory syncytial virus, HEp-2, 96 h, Table 3; HEp-2 cells, RSV A2, 4 days; read-out: RSV HEp-2 EC50
Summary of the method: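 Cytopathic-effect protection assay: HEp-2 cells (50,000/mL) infected with pre-titered RSV A2 onto 3-fold serial compound dilutions, incubated 4 days at 37° C. Cell viability read by CellTiter-Glo luminescence; percent inhibition derived against 0% and 100% virus-inhibition controls.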

HRV16 = HRV16 HeLa EC50 (cytopathic effect in H1-HeLa cells); settings: 96 h, Table 3; H1-HeLa cells, 96 h; read-out: HRV16 HeLa EC50
Summary of the method: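 Read-out is luminescent cell viability (CellTiter-Glo) after 96 h of infection at 33 °C, scaled between uninfected and infected-untreated wells. Before infection with titrated virus, compounds went onto H1-HeLa cells as triplicate 3-fold dilution series.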

RSV A2 = assay: RSV NHBE EC50 (RSV A2 antiviral assay in NHBE cells); settings: human respiratory syncytial virus, NHBE, 96 h, Table 3; NHBE cells, RSV A2, 4 days; read-out: RSV NHBE EC50
Summary of the method: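 Read-out: CellTiter-Glo luminescence of cell viability after 4 days at 37° C. Primary NHBE cells, 7,500/well, 3-fold compound dilutions, 0.05% DMSO, infected with RSV A2 (1×10^4.5 TCID/mL).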

SMILES | EC50 (DENV2 replicon) [µM] | EC50 (RSV strain A2) [nM] | EC50 (HRV16) [nM] | EC50 (RSV A2) [nM]
CC(C)[C@@H](N)C(=O)O[C@H]1[C@H](c2ccc3c(N)ncnn23)O[C@](C#N)(CO[P@@](=O)(N[C@@H](C)C(=O)OC2CCCCC2)Oc2ccccc2)[C@H]1OC(=O)[C@H](N)C(C)C [Example 153, (2R,3S,4S,5S)-5-(4-aminopyrrolo[2,1-f][1,2,4]triazin-7-yl)-2-cyano-2-((((S)-(((S)-1-(cyclohexyloxy)-1-oxopropan-2-yl)amino)(phenoxy)phosphoryl)oxy)methyl)tetrahydrofuran-3,4-diyl (2R,2′R)-bis(2-amino-3-methylbutanoate)] | 6.68 | 110 | 470 | 283
CO[C@H](C)C(=O)O[C@H]1[C@H](c2ccc3c(N)ncnn23)O[C@](C#N)(CO[P@@](=O)(N[C@@H](C)C(=O)OC(C)C)Oc2ccccc2)[C@H]1OC(=O)[C@@H](C)OC [Example 154, (2R,3S,4S,5S)-5-(4-aminopyrrolo[2,1-f][1,2,4]triazin-7-yl)-2-cyano-2-((((S)-(((S)-1-isopropoxy-1-oxopropan-2-yl)amino)(phenoxy)phosphoryl)oxy)methyl) tetrahydrofuran-3,4-diyl (2R,2′R)-bis(2-methoxypropanoate)] | 20.5 | 185 | 874 | 114
CO[C@H](C)C(=O)Nc1ncnn2c([C@@H]3O[C@](C#N)(CO[P@@](=O)(N[C@@H](C)C(=O)OC(C)C)Oc4ccccc4)[C@@H](OC(=O)[C@@H](C)OC)[C@H]3OC(=O)[C@@H](C)OC)ccc12 [Example 155, (2R,3S,4S,5S)-2-cyano-2-((((S)-(((S)-1-isopropoxy-1-oxopropan-2-yl)amino)(phenoxy)phosphoryl)oxy)methyl)-5-(4-((R)-2-methoxypropanamido)pyrrolo[2,1-f][1,2,4]triazin-7-yl)tetrahydrofuran-3,4-diyl (2R,2′R)-bis(2-methoxypropanoate)] | 29.2 | 437 | 2680 | 294
CC(C)OC(=O)[C@H](C)N[P@](=O)(OC[C@@]1(C#N)O[C@@H](c2ccc3c(N)ncnn23)[C@H](OC(=O)C2CCOCC2)[C@@H]1OC(=O)C1CCOCC1)Oc1ccccc1 [Example 156, (2R,3S,4S,5S)-5-(4-aminopyrrolo[2,1-f][1,2,4]triazin-7-yl)-2-cyano-2-((((S)-(((S)-1-isopropoxy-1-oxopropan-2-yl)amino)(phenoxy)phosphoryl)oxy)methyl) tetrahydrofuran-3,4-diyl bis(tetrahydro-2H-pyran-4-carboxylate)] | > 50 | 456 | 21700 | > 5000
CC(C)OC(=O)[C@H](C)N[P@](=O)(OC[C@@]1(C#N)O[C@@H](c2ccc3c(N)ncnn23)[C@H](OC(=O)[C@@H](N)C(C)C)[C@@H]1OC(=O)[C@@H](N)C(C)C)Oc1ccccc1 [Example 157, (2R,3S,4S,5S)-5-(4-aminopyrrolo[2,1-f][1,2,4]triazin-7-yl)-2-cyano-2-((((S)-(((S)-1-isopropoxy-1-oxopropan-2-yl)amino)(phenoxy)phosphoryl)oxy)methyl)tetrahydrofuran-3,4-diyl (2S,2'S)-bis(2-amino-3-methylbutanoate)] | 25.8 | 227 | 1790 | 1590
CO[C@@H](C)C(=O)O[C@H]1[C@H](c2ccc3c(N)ncnn23)O[C@](C#N)(CO[P@@](=O)(N[C@@H](C)C(=O)OC(C)C)Oc2ccccc2)[C@H]1OC(=O)[C@H](C)OC [Example 158, (2R,3S,4S,5S)-5-(4-aminopyrrolo[2,1-f][1,2,4]triazin-7-yl)-2-cyano-2-((((S)-(((S)-1-isopropoxy-1-oxopropan-2-yl)amino)(phenoxy)phosphoryl)oxy)methyl) tetrahydrofuran-3,4-diyl (2S,2'S)-bis(2-methoxypropanoate)] | 15.7 | 139 | 731 | 52
CCC(=O)O[C@H]1[C@H](c2ccc3c(N)ncnn23)O[C@](C#N)(COP(=O)(N[C@@H](C)C(=O)OC[C@H]2CC[C@H](N)CC2)Oc2ccccc2)[C@H]1OC(=O)CC (stereo partly drawn) [Example 159, (2R,3S,4S,5S)-2-((((((S)-1-(((1r,4S)-4-aminocyclohexyl)methoxy)-1-oxopropan-2-yl)amino)(phenoxy)phosphoryl)oxy)methyl)-5-(4-aminopyrrolo[2,1-f][1,2,4]triazin-7-yl)-2-cyanotetrahydrofuran-3,4-diyl dipropionate] | > 50 | 7990 | 33100 | 1550
COCCOCC(=O)O[C@H]1[C@H](c2ccc3c(N)ncnn23)O[C@](C#N)(CO[P@@](=O)(N[C@@H](C)C(=O)OC(C)C)Oc2ccccc2)[C@H]1OC(=O)COCCOC [Example 161, (2R,3S,4S,5S)-5-(4-aminopyrrolo[2,1-f][1,2,4]triazin-7-yl)-2-cyano-2-((((S)-(((S)-1-isopropoxy-1-oxopropan-2-yl)amino)(phenoxy)phosphoryl)oxy)methyl) tetrahydrofuran-3,4-diyl bis(2-(2-methoxyethoxy)acetate)] | 22.5 | 151 | 1230 | 1160
COC(=O)[C@H](C)N[P@](=O)(OC[C@@]1(C#N)O[C@@H](c2ccc3c(N)ncnn23)[C@H](OC(=O)[C@@H](C)OC)[C@@H]1OC(=O)[C@@H](C)OC)Oc1ccccc1 [Example 166, (2R,3S,4S,5S)-5-(4-aminopyrrolo[2,1-f][1,2,4]triazin-7-yl)-2-cyano-2-((((S)-(((S)-1-methoxy-1-oxopropan-2-Yl)amino)(phenoxy)phosphoryl)oxy)methyl) tetrahydrofuran-3,4-diyl (2R,2′R)-bis(2-methoxypropanoate)] | 21.7 | 157 | 1660 | 112
CCC(=O)Nc1ncnn2c([C@@H]3O[C@](C#N)(COP(=O)(N[C@@H](C)C(=O)OC4CCOCC4)Oc4ccccc4)[C@@H](OC(=O)CC)[C@H]3OC(=O)CC)ccc12 (stereo partly drawn) [Example 170, (2R,3S,4S,5S)-2-Cyano-2-((((((S)-1-oxo-1-((tetrahydro-2H-pyran-4-yl)oxy)propan-2-yl)amino)(phenoxy)phosphoryl)oxy)methyl)-5-(4-propionamidopyrrolo[2,1-f][1,2,4]triazin-7-yl)tetrahydrofuran-3,4-diyl dipropionate] | 15.9 | 267 | 863 | 80
CCC(=O)O[C@H]1[C@H](c2ccc3c(N)ncnn23)O[C@](C#N)(CO[P@@](=O)(N[C@@H](C)C(=O)OCC(CC)CC)Oc2ccccc2)[C@H]1OC(=O)CC [Example 180, (2R,3S,4S,5S)-5-(4-aminopyrrolo[2,1-f][1,2,4]triazin-7-yl)-2-cyano-2-((((S)-(((S)-1-(2-ethylbutoxy)-1-oxopropan-2-yl)amino)(phenoxy)phosphoryl)oxy)methyl) tetrahydrofuran-3,4-diyl dipropionate] | 8.31 | 62 | 178 | 31
